# In patent US11149277B2, “Method of producing enriched exosomes” (National Health Research Institutes, priority 2016, dated 2021):
# Tests used:
# NAMECs [1] = assay: Western blot of exosome markers and proteins in CM-P4 fractions of NAMECs; type: cell-based, human; settings: AH23848 0.4, 2, 4 μg/ml; AH6809 0.8, 4, 8 μg/ml; GW 1 μg/ml
# Excerpt: FIG. 2 includes graphs and blots showing analyses of GW-treated NAMEC P4 fractions. CM-P4 GW-treated NAMECs were collected and subjected to (A) NanoSight Nanoparticle Tracking Analysis (NTA) and (B) Dynamic Light Scattering/Zeta Potential Analysis (DLS). […] D: particle diameter. RN: relative number. (C) is a blot showing the amounts of the CD44 stem cell marker and the CD81, CD9, TSG101, Alix, HSP70 and GAPDH exosome markers measured in the indicated CM-P4 fractions and cell lysates. The culture media and cell lysates were collected from the same number of NAMECs treated with vehicle (Crl), GW627368X (GW) or PGE2 (1 μM) for 4 days. (D) is a blot showing the amounts of the GAPDH and CD81 exosome markers and the CD44 stem cell marker measured in the CM-P4 fraction of NAMECs (CD44hi/CD24− stem cells) or CD44lo/CD24+ non-stem cells (HMLE cells) treated with vehicle (Crl) or GW for 2 days. 1×: P4 exosome fraction released by 1×10^6 cells; 2×: P4 exosome fraction released by 2×10^6 cells. […] (E) is a blot showing that the CD44 stem cell marker and GAPDH and CD81 exosome markers were measured in the indicated P4 conditioned medium fractions of NAMECs treated with vehicle (Crl), GW627368X (GW, 1 μg/ml), AH23848 (EP4 antagonist; 0.4, 2, 4 μg/ml), or AH6809 (EP1/2/3 antagonist; 0.8, 4, 8 μg/ml). (F) is a blot showing the HSP70, GAPDH and CD81 exosome markers measured in the indicated CM-P4 of NAMECs, NAMEC-shEP4-1 cells, and NAMEC-shEP4-2 cells treated with vehicle or with doxycycline (Dox, 2 μg/ml) (top panel). Doxyclycline (Dox) induced the production EP4 shRNA in NAMEC-shEP4 cells (bottom panel).
# The P4 exosome fractions and cell lysates were collected from NAMECs treated with vehicle (Crl), GW627368X (GW), or PGE2 for 4 days. 1×: P4 exosome fraction released by 2.5×10^5 cells; 5×: P4 exosome fraction released by 12.5×10^5 cells. Hg: Hg-integrin β1, Lg: Lg-integrin β1, H: H-integrin α6, L: L-integrin α6, pg: pg-LRP6, g: g-LRP6, Ng: Ng-LRP6.
# (§1) The isolated human mammary epithelial stem cells (NAMECs) were cultured in mammary epithelial cell basal medium (250 ml MCDB-170, 250 ml DMEM-F12, 1.2 g sodium bicarbonate, 2.5 μg EGF, 0.25 mg Hydrocortisone, 2.5 mg insulin, 35 mg BPE) with or without containing EP4 antagonist, i.e., GW627368X (GW) at 1 μg/ml, or AH23848 (AH) at 4 μg/ml, for 4 days. The culture medium was supplied with 0.5 μg/ml of GW or 2 μg/ml of AH23848 at the third day of the culturing period. For the induction of EP4 antagonist-induced exosomes from mouse mammary epithelial cells, cells were cultured in a medium containing 10 μg/ml of GW for 4 days.
# The culture media were centrifuged at 300 g for 5 min to remove cells (P1), at 2,000 g for 20 min (P2), then at 10,000 g for 30 min (P3) all at 4° C. Dead cells and cell debris were removed at 300 g (P1) and 1200 g (P2). […]
# NAMECs [2] = assay: NanoSight Nanoparticle Tracking Analysis of CM-P4 fractions of NAMEC culture; type: cell-based, human; settings: CM-P4 fraction, 4 days; PGE2 1 μM
# Excerpt: FIG. 1 includes a TEM image and a graph. (A) is a TEM image of the P4 medium fraction of NAMECs treated with GW627368X (GW) for 4 days. Scale bar, 1 μm. (B) is a graph showing the number of particles in the CM-P4 fractions of NAMEC culture counted by using NanoSight Nanoparticle Tracking analysis. Top panel: Quantification of exosome release is shown as the ratio of [P4 GAPDH marker level]/[cell number]. Data are means±SEM (n=3). *P≤0.05. **P≤0.005. Bottom table: Quantification of exosome release is shown as the number of particles of the CM-P4 fractions released per cell measured by nanoparticle tracking analysis.
# as §1
# The culture media were centrifuged at 300 g for 5 min to remove cells (P1), at 2,000 g for 20 min (P2), then at 10,000 g for 30 min (P3) all at 4° C. Dead cells and cell debris were removed at 300 g (P1) and 1200 g (P2). Finally, exosomes (P4) were separated from the supernatant by centrifugation at 110,000 g for 60 min. The P4 exosome pellet was washed once in PBS and then re-suspended in PBS for further application.
# NAMEC-R cells = assay: NTA of EV release from Ras-transformed NAMEC-R cells; type: cell-based; settings: CM-P4, 4 days; GW 1 μg/ml; SQ 120 and 240 nM
# Description: Vesicles in the P4 fractions were counted using NTA. Data are means±SEM (n=6). ***P≤0.001; (B) The Alix, TSG101, CD63, CD81 and GAPDH exosome markers were measured in the CM-P4 fractions of NAMEC-R cells treated with vehicle (Crl), GW627368X (GW, 1 μg/ml), SQ 29,548 (SQ120/SQ240; 120 nM and 240 nM); (C) The mesenchymal marker N-cadherin, CSC markers and exosome markers were analyzed in the conditioned medium P4 fraction derived from equal numbers of vehicle-treated NAMEC-R cells (Crl), GW-treated NAMEC-R cells (GW, 1 μg/ml GW627368X for 4 days) and SQ 29,548-treated NAMEC-R cells (SQ120/SQ240; 120 nM and 240 nM for 4 days). The longer GAPDH(L) and CD81(L) exposures show the low, but detectable, presence of GAPDH and CD81 in the conditioned medium P4 fraction of vehicle-treated NAMEC-R cells.
# We further investigated whether EP4 antagonism and TP receptor antagonism (as GW has partial affinity to the human TP receptor) affected EV release from transformed mammary epithelial stem cells. Four-day conditioned media of vehicle, GW-, or SQ (a TP antagonist)-treated Ras-transformed NAMEC mammary stem cells (NAMEC-R) were collected and subjected to differential ultracentrifugation to isolate EVs released by the cells. The numbers of vesicles in CM-P4 fractions were determined using NTA (FIG. 20, A). EP4 antagonism elicited release of ˜5000 vesicles per NAMEC-R cell. […]
Structure (SMILES),exosome release by exosome markers in CM-P4 fractions (NAMECs [1]),further results
CC(C)Oc1ccc2c(=O)c3cc(C(=O)O)ccc3oc2c1 [AH6809],not significantly induced,
O=C(O)CC/C=C\CC[C@H]1[C@H](N2CCOCC2)C(=O)C[C@H]1OCc1ccc(-c2ccccc2)cc1 [AH23848],induced in a dose-dependent manner,
"CCCCC[C@H](O)/C=C/[C@H]1[C@H](O)CC(=O)[C@@H]1C/C=C\CCCC(=O)O [PGE2, prostaglandin E2]",,concentration of released membrane vesicles (NAMECs [2]): ~0.5×10^4 particle/cell
"O=C(O)CCC/C=C\C[C@@H]1[C@H](CNNC(=O)Nc2ccccc2)[C@H]2CC[C@@H]1O2 [SQ 29,548]",,vesicles released per cell (NAMEC-R cells): ~1000 vesicles per cell
